Patent publication US12433865B2, “Compositions comprising PGI2-receptor agonists and processes for the preparation thereof” (Arena Pharmaceuticals, Inc., priority 2018, dated 2025)

Assay: Release (dissolution) profile of capsules, USP Apparatus 2 (paddle)
Assay type: physicochemical
From the text: USP Apparatus 2 (Paddle Apparatus) is described, for example, in the United States Pharmacopeial Convention, Feb. 1, 2012, Chapter <711> (“Dissolution”), incorporated by reference herein in its entirety. See http://www.usp.org/sites/default/files/usp_pdf/EN/USPNF/revisions/m99470-gc_711.pdf. The assembly from Apparatus 1 is used, except that a paddle formed from a blade and a shaft is used as the stirring element. The shaft is positioned so that its axis is not more than 2 mm from the vertical axis of the vessel at any point and rotates smoothly without significant wobble that could affect the results. The vertical center line of the blade passes through the axis of the shaft so that the bottom of the blade is flush with the bottom of the shaft. A distance of 25±2 mm between the bottom of the blade and the inside bottom of the vessel is maintained during the test. The metallic or suitably inert, rigid blade and shaft comprise a single entity. A suitable two-part detachable design may be used provided the assembly remains firmly engaged during the test. The paddle blade and shaft may be coated with a suitable coating so as to make them inert. The dosage unit is allowed to sink to the bottom of the vessel before rotation of the blade is started. A small, loose piece of nonreactive material, such as not more than a few turns of wire helix, may be attached to dosage units that would otherwise float. Other validated sinker devices may be used.
Unless otherwise specified, the release profiles for capsules were measured using USP Apparatus 2 (paddle).
All release profiles disclosed in Tables 3c-3p were measured with USP Apparatus 2 (paddle) at 50 rpm in 500 mL of aqueous sodium phosphate at a concentration of 0.05 M (pH=6.8). The values in a given table relate to capsules obtained from the same batch. Values shown represent mean values over a number of dissolution tests (“n” in each table) in each case.

For `O=C(O)COC[C@H]1CC[C@H](COC(=O)N(c2ccccc2)c2ccc(Cl)cc2)CC1` [Compound 1, 2-(((1r,4r)-4-(((4-chlorophenyl)(phenyl)carbamoyloxy)methyl)cyclohexyl)methoxy)acetic acid], the “mean value (n = 4) of % of Compound 1 released” value (Table 3p: size 4 capsule, 0.5 mg Compound 1, Poloxamer 188:food grade GMS 30:70, 735 min) was 96.1%, the “mean value (n = 4) of % of Compound 1 released” value (Table 3q: size 4 capsule, 0.5 mg Compound 1, Poloxamer 188:food grade GMS 30:70, 30 min) was 6.2% and the “mean value (n = 4) of % of Compound 1 released” value (Table 3q: size 4 capsule, 0.5 mg Compound 1, Poloxamer 188:food grade GMS 30:70, 60 min) was 13.7%. The “mean value (n = 4) of % of Compound 1 released” value (Table 3q: size 4 capsule, 0.5 mg Compound 1, Poloxamer 188:food grade GMS 30:70, 120 min) was 27.3%, the “mean value (n = 4) of % of Compound 1 released” value (Table 3q: size 4 capsule, 0.5 mg Compound 1, Poloxamer 188:food grade GMS 30:70, 180 min) was 40.3% and the “mean value (n = 4) of % of Compound 1 released” value (Table 3q: size 4 capsule, 0.5 mg Compound 1, Poloxamer 188:food grade GMS 30:70, 240 min) was 52.5%. For the same molecule, the “mean value (n = 4) of % of Compound 1 released” value (Table 3q: size 4 capsule, 0.5 mg Compound 1, Poloxamer 188:food grade GMS 30:70, 360 min) was 74.2%, the “mean value (n = 4) of % of Compound 1 released” value (Table 3q: size 4 capsule, 0.5 mg Compound 1, Poloxamer 188:food grade GMS 30:70, 480 min) was 85.5% and the “mean value (n = 4) of % of Compound 1 released” value (Table 3q: size 4 capsule, 0.5 mg Compound 1, Poloxamer 188:food grade GMS 30:70, 600 min) was 91.5%. The “mean value (n = 4) of % of Compound 1 released” value (Table 3q: size 4 capsule, 0.5 mg Compound 1, Poloxamer 188:food grade GMS 30:70, 720 min) was 93.4%, the “mean value (n = 4) of % of Compound 1 released” value (Table 3q: size 4 capsule, 0.5 mg Compound 1, Poloxamer 188:food grade GMS 30:70, 735 min) was 94.5% and the “mean value (n = 6) of % of Compound 1 released” value (Table 3r: size 4 capsule, 0.03 mg Compound 1, Poloxamer 188:food grade GMS 30:70, 60 min) was 11%. For the same molecule, the “mean value (n = 6) of % of Compound 1 released” value (Table 3r: size 4 capsule, 0.03 mg Compound 1, Poloxamer 188:food grade GMS 30:70, 120 min) was 23%, the “mean value (n = 6) of % of Compound 1 released” value (Table 3r: size 4 capsule, 0.03 mg Compound 1, Poloxamer 188:food grade GMS 30:70, 180 min) was 33% and the “mean value (n = 6) of % of Compound 1 released” value (Table 3r: size 4 capsule, 0.03 mg Compound 1, Poloxamer 188:food grade GMS 30:70, 240 min) was 43%. For the same molecule, the “mean value (n = 6) of % of Compound 1 released” value (Table 3r: size 4 capsule, 0.03 mg Compound 1, Poloxamer 188:food grade GMS 30:70, 360 min) was 62%, the “mean value (n = 6) of % of Compound 1 released” value (Table 3r: size 4 capsule, 0.03 mg Compound 1, Poloxamer 188:food grade GMS 30:70, 480 min) was 77% and the “mean value (n = 6) of % of Compound 1 released” value (Table 3r: size 4 capsule, 0.03 mg Compound 1, Poloxamer 188:food grade GMS 30:70, 600 min) was 87%. The “mean value (n = 6) of % of Compound 1 released” value (Table 3r: size 4 capsule, 0.03 mg Compound 1, Poloxamer 188:food grade GMS 30:70, 720 min) was 91%, the “mean value (n = 6) of % of Compound 1 released” value (Table 3r: size 4 capsule, 0.03 mg Compound 1, Poloxamer 188:food grade GMS 30:70, 840 min) was 95% and the “mean value (n = 6) of % of Compound 1 released” value (Table 3s-1: Storage time = 0, size 4 capsule, 0.03 mg Compound 1, Poloxamer 188:food grade GMS 30:70, 60 min) was 16.7%. For the same molecule, the “mean value (n = 6) of % of Compound 1 released” value (Table 3s-1: Storage time = 0, size 4 capsule, 0.03 mg Compound 1, Poloxamer 188:food grade GMS 30:70, 120 min) was 27.5%, the “mean value (n = 6) of % of Compound 1 released” value (Table 3s-1: Storage time = 0, size 4 capsule, 0.03 mg Compound 1, Poloxamer 188:food grade GMS 30:70, 180 min) was 38.3% and the “mean value (n = 6) of % of Compound 1 released” value (Table 3s-1: Storage time = 0, size 4 capsule, 0.03 mg Compound 1, Poloxamer 188:food grade GMS 30:70, 240 min) was 50.3%. For the same molecule, the “mean value (n = 6) of % of Compound 1 released” value (Table 3s-1: Storage time = 0, size 4 capsule, 0.03 mg Compound 1, Poloxamer 188:food grade GMS 30:70, 360 min) was 72.3%, the “mean value (n = 6) of % of Compound 1 released” value (Table 3s-1: Storage time = 0, size 4 capsule, 0.03 mg Compound 1, Poloxamer 188:food grade GMS 30:70, 480 min) was 88.7% and the “mean value (n = 6) of % of Compound 1 released” value (Table 3s-1: Storage time = 0, size 4 capsule, 0.03 mg Compound 1, Poloxamer 188:food grade GMS 30:70, 600 min) was 96.0%. The “mean value (n = 6) of % of Compound 1 released” value (Table 3s-2: Storage time = 2 weeks, size 4 capsule, 0.03 mg Compound 1, Poloxamer 188:food grade GMS 30:70, 60 min) was 16.0%, the “mean value (n = 6) of % of Compound 1 released” value (Table 3s-2: Storage time = 2 weeks, size 4 capsule, 0.03 mg Compound 1, Poloxamer 188:food grade GMS 30:70, 120 min) was 27.7% and the “mean value (n = 6) of % of Compound 1 released” value (Table 3s-2: Storage time = 2 weeks, size 4 capsule, 0.03 mg Compound 1, Poloxamer 188:food grade GMS 30:70, 180 min) was 39.7%. The “mean value (n = 6) of % of Compound 1 released” value (Table 3s-2: Storage time = 2 weeks, size 4 capsule, 0.03 mg Compound 1, Poloxamer 188:food grade GMS 30:70, 240 min) was 52.2%, the “mean value (n = 6) of % of Compound 1 released” value (Table 3s-2: Storage time = 2 weeks, size 4 capsule, 0.03 mg Compound 1, Poloxamer 188:food grade GMS 30:70, 360 min) was 74.6% and the “mean value (n = 6) of % of Compound 1 released” value (Table 3s-2: Storage time = 2 weeks, size 4 capsule, 0.03 mg Compound 1, Poloxamer 188:food grade GMS 30:70, 480 min) was 89.4%. The “mean value (n = 6) of % of Compound 1 released” value (Table 3s-2: Storage time = 2 weeks, size 4 capsule, 0.03 mg Compound 1, Poloxamer 188:food grade GMS 30:70, 600 min) was 96.7%, the “mean value (n = 6) of % of Compound 1 released” value (Table 3h: size 4 capsule, 0.03 mg Compound 1, Poloxamer 188:food grade GMS 50:50, 60 min) was 17.9% and the “mean value (n = 6) of % of Compound 1 released” value (Table 3h: size 4 capsule, 0.03 mg Compound 1, Poloxamer 188:food grade GMS 50:50, 120 min) was 35.9%. The “mean value (n = 6) of % of Compound 1 released” value (Table 3h: size 4 capsule, 0.03 mg Compound 1, Poloxamer 188:food grade GMS 50:50, 180 min) was 51.7%, the “mean value (n = 6) of % of Compound 1 released” value (Table 3h: size 4 capsule, 0.03 mg Compound 1, Poloxamer 188:food grade GMS 50:50, 240 min) was 67.9% and the “mean value (n = 6) of % of Compound 1 released” value (Table 3h: size 4 capsule, 0.03 mg Compound 1, Poloxamer 188:food grade GMS 50:50, 300 min) was 83.6%. For the same molecule, the “mean value (n = 6) of % of Compound 1 released” value (Table 3h: size 4 capsule, 0.03 mg Compound 1, Poloxamer 188:food grade GMS 50:50, 360 min) was 92.3%, the “mean value (n = 6) of % of Compound 1 released” value (Table 3h: size 4 capsule, 0.03 mg Compound 1, Poloxamer 188:food grade GMS 50:50, 480 min) was 98.1% and the “mean value (n = 4) of % of Compound 1 released” value (Table 3d: size 4 capsule, 0.5 mg Compound 1, Poloxamer 188:food grade GMS 70:30, 30 min) was 13.8%. The “mean value (n = 4) of % of Compound 1 released” value (Table 3d: size 4 capsule, 0.5 mg Compound 1, Poloxamer 188:food grade GMS 70:30, 60 min) was 60.2%, the “mean value (n = 4) of % of Compound 1 released” value (Table 3d: size 4 capsule, 0.5 mg Compound 1, Poloxamer 188:food grade GMS 70:30, 120 min) was 92.1% and the “release rate relative to immediate release composition” value (capsule, Gelucire 50/13:Kolliphor RH40 50:50 (FIG. 3)) was “substantially reduced”. The “change of release rate after storage” value (capsule, Gelucire 50/13:Kolliphor RH40 75:25, storage at 40° C. and 75% RH over time (FIG. 4)) was “significantly increased”, the “release rate, 90:10 ratio relative to 80:20 ratio” value (capsule, Gelucire 50/13:Kolliphor RH40 90:10 vs 80:20 (FIG. 3)) was “further reduced” and the “effect of curing in stabilizing the release profile” value (research grade GMS (lower monoester content) instead of food grade GMS) was “not as effective”.
